Each block holds one molecule with its values, some of them ahead of it.
Assays:
[1] = target: T1, human sweat β-glucuronidase (Homo sapiens, UniProt P08236); experiment: Hydrolysis of model glucuronides by human sweat glucuronidase; format: biochemical; conditions: for Hydrolysis of Glucuronides: dialyzed human sweat, initial rate, enzyme diluted so that PGA rates are equivalent
T1 sequence (P08236 23-651): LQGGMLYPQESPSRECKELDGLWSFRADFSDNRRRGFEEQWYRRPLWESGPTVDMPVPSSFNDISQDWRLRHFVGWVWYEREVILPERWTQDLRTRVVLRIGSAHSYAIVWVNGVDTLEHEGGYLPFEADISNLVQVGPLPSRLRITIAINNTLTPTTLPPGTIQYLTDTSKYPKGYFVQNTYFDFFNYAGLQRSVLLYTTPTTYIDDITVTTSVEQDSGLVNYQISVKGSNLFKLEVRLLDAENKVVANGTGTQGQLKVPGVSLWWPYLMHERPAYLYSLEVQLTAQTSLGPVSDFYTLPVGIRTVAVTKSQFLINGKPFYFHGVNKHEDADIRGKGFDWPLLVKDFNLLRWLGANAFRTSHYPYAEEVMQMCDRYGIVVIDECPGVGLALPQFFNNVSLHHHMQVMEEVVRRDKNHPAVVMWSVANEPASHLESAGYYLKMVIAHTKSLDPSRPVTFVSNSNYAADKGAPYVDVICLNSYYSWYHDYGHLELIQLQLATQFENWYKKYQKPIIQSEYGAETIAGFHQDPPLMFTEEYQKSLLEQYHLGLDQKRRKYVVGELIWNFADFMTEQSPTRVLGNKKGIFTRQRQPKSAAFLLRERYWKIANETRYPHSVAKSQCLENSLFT
Protocol: Sweat was obtained from human volunteers by collection from the axilla during high temperature (>41° C.) in a sauna. The sweat was clarified by centrifugation at 20,000 g for 30 min. This clarified sweat was then either utilized directly in hydrolysis studies or dialyzed against 100 mM NaCl, 50 mM sodium acetate, pH 5.0 prior to use. […] Most of the data presented herein was generated with dialyzed preparations.
β-glucuronidase activity was assayed in the sweat by hydrolysis of phenolphthalein glucuronide. Briefly, this assay was carried out as follows: to an aliquot of undialyzed sweat was added an equal volume of buffer comprising 100 mM NaCl, 100 mM sodium acetate, pH 5.0 (this step was unnecessary when assaying dialyzed sweat) followed by 10 μl of a 100 mg/ml phenolphthalein glucuronide solution (Sigma Chemical, St. Louis, Mo.). The reaction mixture was then incubated at 37° C. After 30 min an aliquot of the reaction mixture was added to a five-fold excess of a 0.2 M glycine buffer, pH 10.4 and the absorbance wa determined at 540 nm. The activity was determined by comparison to a known amount of E. coli β-glucuronidase (Sigma, Type VII) run under standard conditions.
A variety of glucuronides were synthesized and tested for their ability to be hydrolyzed by human sweat glucuronidase. […] These hydrolysis reactions were all carried out under similar conditions, and the extent of hydrolysis was determined at the various time points by HPLC analysis of the reaction mixture.
Generally, dialyzed preparations of sweat were used for the reasons discussed earlier. […] A typical experiment was done by bringing the enzyme solution (50-100 U/ml) to 0.01 to 0.05% in the glucuronide to be tested. A zero time aliquot was withdrawn and stored frozen; the remaining reaction mixture was incubated at 37° C. Aliquots were taken at various time points for rate determinations. These aliquots were stored at -20° C. until analysis by HPLC.
High pressure liquid chromatography of the aliquots drawn from the hydrolysis reactions allowed the separation of the aglycon from the glucuronide in all cases. The nmoles released at any given time were calculated from the absorption at 254 nm and the known extinction coefficient of the compound. Rates are given as initial rates which are determined by plotting nmoles aglycon vs. time.

[2] = Solubility of aglycon in the enzymatic reaction mixture; format: physicochemical; conditions: aqueous tris hydrochloride reaction mixture
Protocol: Due to the low solubility of this compound, excess solid material is added to the reaction mixture so that a saturated solution of aglycon is maintained throughout the reaction. The glucuronide is isolated by HPLC with the reversed phase system described in Example 2. It is characterized by hydrolysis with excess E. coli β-glucuronidase (1000 U/ml, pH 6.8) (Sigma, Type […]) for 1 hr at 37° C. which quantitatively releases the aglycon as assayed by HPLC.
The glucuronide of scopolamine p-hydroxybenzoate is synthesized with uridine 5'-diphosphoglucuronic acid transferase by first removing all or substantially all of the esterase activity from liver microsomes. These esterases are removed since they will hydrolyze the aglycon. This operation can be done by washing the liver microsomes in a suitable buffer, as described herein, or by other equivalent washing means known to persons in this art. Advantageously, an esterase inhibitor can be used to supplement the washing of the microsomes. For example, a competitive inhibitor of the esterases such as lysine ethyl ester, and the like, or a suicide substrate such as phenylmethylsulfonyl fluoride, and the like, can be used. […] The glucuronide is characterized by hydrolysis with excess E. coli β-glucuronidase (100 U/ml, pH 6.8) (Sigma, Type VII) for 1 hr at 37° C. which quantitatively releases the aglycon as assayed by HPLC.

rabbit eye pupil = experiment: Mydriasis assay (rabbit eye pupil diameter); format: in vivo; conditions: for Change in Pupil Diameter as a function of time: error ± 0.5 mm; for mydriatic potency compared to the parent drugs: compared to parent drugs tropicamide and scopolamine
Protocol: The rabbit eye pupil diameter was measured with a clear plastic ruler after exposing the eye to 50 W light at a distance of 6 in. Exposure to light contracts the pupil to approximately 3 mm diameter.
The addition of the compounds to be tested is done in a maximum volume of 150 μl, in 50 mM NaPO4, pH 6.8, 100 mM NaCl. The sample was applied in the upper corner of the eye and was allowed to completely cover the cornea after each addition. Pupil dilation was measured at 3 separate intervals following the procedure outlined above. Buffer controls were run in one eye and the anticholinergic in the other.

E. coli β-glucuronidase = E. coli β-glucuronidase (Escherichia coli, UniProt P05804); experiment: Hydrolysis of glucuronides by E. coli β-glucuronidase; format: biochemical; conditions: pH 6.8; for Hydrolysis of Glucuronides: E. coli enzyme, initial rate, enzyme diluted so that PGA rates are equivalent
E. coli β-glucuronidase, sequence (P05804 whole entry): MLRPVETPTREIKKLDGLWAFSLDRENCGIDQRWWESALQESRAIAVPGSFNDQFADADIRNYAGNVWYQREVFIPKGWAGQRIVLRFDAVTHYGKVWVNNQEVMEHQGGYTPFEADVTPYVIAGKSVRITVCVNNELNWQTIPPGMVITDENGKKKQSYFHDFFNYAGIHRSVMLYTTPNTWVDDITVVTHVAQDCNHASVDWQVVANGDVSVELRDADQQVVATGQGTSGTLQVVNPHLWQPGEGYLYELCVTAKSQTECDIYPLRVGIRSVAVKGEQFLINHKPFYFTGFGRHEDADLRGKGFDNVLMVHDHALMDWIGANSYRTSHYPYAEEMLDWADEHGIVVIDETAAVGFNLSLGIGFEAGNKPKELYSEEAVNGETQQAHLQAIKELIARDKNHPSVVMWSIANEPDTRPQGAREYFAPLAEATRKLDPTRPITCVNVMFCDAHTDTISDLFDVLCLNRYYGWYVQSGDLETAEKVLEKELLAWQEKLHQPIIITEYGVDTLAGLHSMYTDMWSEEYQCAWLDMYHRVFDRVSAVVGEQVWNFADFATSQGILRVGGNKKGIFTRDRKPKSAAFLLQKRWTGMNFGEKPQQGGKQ

[3] = target: T2, bovine liver β-glucuronidase (Bos taurus, UniProt A3KMY8); experiment: Hydrolysis of glucuronides by bovine liver β-glucuronidase; format: biochemical; conditions: bovine liver enzyme, pH 5.0; initial rate; enzyme diluted so that PGA rates are equivalent
T2 sequence (A3KMY8 24-652): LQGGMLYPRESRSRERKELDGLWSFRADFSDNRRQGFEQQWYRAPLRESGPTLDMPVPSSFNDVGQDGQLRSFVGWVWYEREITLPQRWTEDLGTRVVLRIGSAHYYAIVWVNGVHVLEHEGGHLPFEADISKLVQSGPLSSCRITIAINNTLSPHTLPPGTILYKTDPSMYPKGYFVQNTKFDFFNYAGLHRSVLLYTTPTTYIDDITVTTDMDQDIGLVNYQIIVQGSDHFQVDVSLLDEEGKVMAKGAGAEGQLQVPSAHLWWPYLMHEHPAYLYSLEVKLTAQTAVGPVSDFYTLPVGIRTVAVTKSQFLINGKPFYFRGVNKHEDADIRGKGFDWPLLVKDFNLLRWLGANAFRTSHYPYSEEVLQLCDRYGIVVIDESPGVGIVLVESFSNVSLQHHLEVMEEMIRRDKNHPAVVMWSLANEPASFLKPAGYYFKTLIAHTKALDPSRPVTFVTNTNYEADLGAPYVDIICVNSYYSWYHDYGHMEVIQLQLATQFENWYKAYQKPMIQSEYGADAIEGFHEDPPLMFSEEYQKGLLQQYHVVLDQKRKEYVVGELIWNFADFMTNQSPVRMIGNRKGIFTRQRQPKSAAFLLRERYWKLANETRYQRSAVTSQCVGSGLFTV

[4] = levels 100-fold greater than required to effect a strong mydriatic response with the aglycon

Hydrolysis of Glucuronides ([1]; pH 5.0): 37 nmoles/hour/100 units
SMILES: COC(=O)Cc1ccc(O[C@@H]2O[C@H](C(=O)O)[C@@H](O)[C@H](O)[C@H]2O)cc1 [p-Hydroxyphenylacetic Acid Methyl Ester-O-β-D-Glucuronide]

SMILES: CN1C2CC(OC(=O)C(COC(=O)c3ccc(O)cc3)c3ccccc3)CC1C1OC12 (stereo not shown) [Scopolamine p-hydroxybenzoate, Scopolamine p-Hydroxybenzoate]
solubility [2]: low | mydriatic response (in words) (rabbit eye pupil; 0.1 μg): sufficient for a response | Change in Pupil Diameter as a function of time (rabbit eye pupil; 0.1 ug applied, in 15 min): 7 mm | mydriatic potency compared to the parent drugs (rabbit eye pupil): potent mydriatic agents

SMILES: CN1C2CC(OC(=O)C(COC3OC(C(=O)O)C(O)C(O)C3O)c3ccccc3)CC1C1OC12 [Scopolamine glucuronide, scopolamine O-β-D-glucuronide]
Hydrolysis of Glucuronides (E. coli β-glucuronidase): 60 nmoles/hour/100 units | Hydrolysis by E. coli enzyme (in words) (E. coli β-glucuronidase): lower, but significant, activity | Hydrolysis of Glucuronides [3]: 25 nmoles/hour/100 units | Hydrolysis of Glucuronides ([1]; pH 5.0): < 0.5 nmoles/hour/100 units | Hydrolysis by human sweat enzyme (in words) ([1]; pH 5.0): no scopolamine could be detected | Hydrolysis by human sweat enzyme (in words) ([1]; pH 6.8): no hydrolysis

Hydrolysis of Glucuronides ([1]; pH 5.0): 2.6 nmoles/hour/100 units
SMILES: COC(=O)C(CO[C@@H]1O[C@H](C(=O)O)[C@@H](O)[C@H](O)[C@H]1O)c1ccccc1 (stereo partly drawn) [Tropic acid methyl ester glucuronide, Tropic Acid Methyl Ester-O-β-D-Glucuronide]

SMILES: CN1C2CC(OC(=O)C(COC(=O)c3ccc(OC4OC(C(=O)O)C(O)C(O)C4O)cc3)c3ccccc3)CC1C1OC12 [Scopolamine p-Hydroxybenzoy-O-β-D-Glucuronic Acid]
Hydrolysis of Glucuronides ([1]; pH 5.0): 40 nmoles/hour/100 units | Change in Pupil Diameter as a function of time (rabbit eye pupil; 11.4 ug applied, in 45 min): 0 mm | mydriatic response (in words) (rabbit eye pupil; [4]): No mydriatic response

SMILES: CCN(Cc1ccncc1)C(=O)C(COC(=O)c1ccc(O)cc1)c1ccccc1 (stereo not shown) [Tropicamide p-hydroxybenzoate, tropicamide p-hydroxybenzoate]
solubility [2]: low | mydriatic response (in words) (rabbit eye pupil; 5.5 μg): clearly mydriatic | Change in Pupil Diameter as a function of time (rabbit eye pupil; 5.5 ug applied, in 35 min): 4 mm | mydriatic potency compared to the parent drugs (rabbit eye pupil): potent mydriatic agents

SMILES: CCN(Cc1ccncc1)C(=O)C(CO[C@@H]1O[C@H](C(=O)O)[C@@H](O)[C@H](O)[C@H]1O)c1ccccc1 (stereo partly drawn) [Tropicamide glucuronide, tropicamide O-β-D-glucuronide]
Hydrolysis of Glucuronides (E. coli β-glucuronidase): > 150 nmoles/hour/100 units | Hydrolysis by E. coli enzyme (in words) (E. coli β-glucuronidase): rapidly hydrolyzes | Hydrolysis of Glucuronides [3]: 24 nmoles/hour/100 units | Hydrolysis of Glucuronides ([1]; pH 5.0): 1.6 nmoles/hour/100 units | Hydrolysis by human sweat enzyme (in words) ([1]; pH 5.0): Trace amounts | Hydrolysis by human sweat enzyme (in words) ([1]; pH 6.8): no hydrolysis | Change in Pupil Diameter as a function of time (rabbit eye pupil; 600 ug applied, in 30 min): 0 mm

SMILES: CCN(Cc1ccncc1)C(=O)C(CO)c1ccccc1 (stereo not shown) [Tropicamide]
mydriatic response (in words) (rabbit eye pupil; 20 μg): weak response

Hydrolysis of Glucuronides ([1]; pH 5.0): 36 nmoles/hour/100 units | Change in Pupil Diameter as a function of time (rabbit eye pupil; 600 ug applied, in 25 min): 0 mm | mydriatic response (in words) (rabbit eye pupil; [4]): No mydriatic response
SMILES: CCN(Cc1ccncc1)C(=O)C(COC(=O)c1ccc(O[C@@H]2O[C@H](C(=O)O)[C@@H](O)[C@H](O)[C@H]2O)cc1)c1ccccc1 (stereo partly drawn) [Tropicamide p-Hydroxybenzoyl-O-β-D-Glucuronic Acid]

SMILES: O=C1OC(c2ccc(O)cc2)(c2ccc(O[C@@H]3O[C@H](C(=O)O)[C@@H](O)[C@H](O)[C@H]3O)cc2)c2ccccc21 (stereo partly shown) [Phenolphthalein glucuronide, phenolphthalein glucuronide]
Hydrolysis of Glucuronides (E. coli β-glucuronidase): 200 nmoles/hour/100 units | Hydrolysis of Glucuronides [3]: 200 nmoles/hour/100 units | Hydrolysis of Glucuronides ([1]; pH 5.0): 200 nmoles/hour/100 units

SMILES: CN1[C@@H]2C[C@@H](OC(=O)[C@H](CO)c3ccccc3)C[C@H]1[C@@H]1O[C@@H]12 [Scopolamine]
mydriatic response (in words) (rabbit eye pupil; 0.6 μg): nonmydriatic | Change in Pupil Diameter as a function of time (rabbit eye pupil; 0.6 ug applied, in 15 min): 0 mm | Change in Pupil Diameter as a function of time (rabbit eye pupil; 6 ug applied, in 15 min): 6 mm | Change in Pupil Diameter as a function of time (rabbit eye pupil; 60 ug applied, in 10 min): 6 mm
